In patent US6936632B2, “Fused pyrrole compounds, pharmaceutical agents containing the same, and the use thereof” (Merckle GmbH, priority 2000, dated 2005):

Q: Which melting point does the source give for NS(=O)(=O)c1ccc(-c2cc3n(c2-c2ccc(F)cc2)CCC3)cc1 here?
A: The melting point was 206.9 °C.

Q: With Cc1c(C(F)(C(F)(F)F)C(F)(F)F)c(-c2ccc(S(N)(=O)=O)cc2)c2n1CCC2 as the compound, how does the melting point read?
A: The melting point was 199.6 °C.

Q: With CS(=O)(=O)c1ccc(-c2c(-c3ccc(F)cc3)cn3c2CCC3)cc1 as the compound, how does the melting point read?
A: The melting point was 191 °C.
